Experiments:
BRD9 [1] = target: T1, BRD9 (Homo sapiens, UniProt Q9H8M2); assay: BRD9 degradation, HiBiT-BRD9 KI HEK293 (LgBiT) cells, NanoGlo Lytic Endpoint assay (Assay Protocol 1); assay type: cell-based; settings: Assay protocol 1, BRD9 degradation; for DC50: read-out: DC50; for Dmax: HEK293, read-out: Dmax
T1 sequence (Q9H8M2 1-597): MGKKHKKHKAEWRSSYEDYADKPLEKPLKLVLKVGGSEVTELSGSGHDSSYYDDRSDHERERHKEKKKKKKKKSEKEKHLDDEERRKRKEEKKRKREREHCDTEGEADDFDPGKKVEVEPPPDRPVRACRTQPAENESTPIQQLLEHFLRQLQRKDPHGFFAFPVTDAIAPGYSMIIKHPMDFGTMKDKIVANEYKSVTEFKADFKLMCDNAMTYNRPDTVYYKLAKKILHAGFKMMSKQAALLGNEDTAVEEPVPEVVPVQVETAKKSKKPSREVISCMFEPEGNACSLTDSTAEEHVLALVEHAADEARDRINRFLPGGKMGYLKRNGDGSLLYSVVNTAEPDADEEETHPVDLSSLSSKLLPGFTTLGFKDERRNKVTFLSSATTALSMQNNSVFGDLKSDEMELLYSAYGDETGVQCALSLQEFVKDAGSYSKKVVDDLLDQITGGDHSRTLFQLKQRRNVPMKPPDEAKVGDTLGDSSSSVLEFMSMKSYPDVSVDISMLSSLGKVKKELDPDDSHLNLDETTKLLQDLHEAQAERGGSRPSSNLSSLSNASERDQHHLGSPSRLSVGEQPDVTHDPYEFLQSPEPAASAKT
Summary of the method: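 HiBiT-tagged BRD9 knock-in HEK293 (LgBiT) cells exposed to compounds for 6 h at 37 °C, 5% CO2. Residual BRD9 measured by HiBiT lytic luminescence. % BRD9 remaining normalised to DMSO-treated cells (high) and no-cell wells (low).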

BRD9 [2] = target: T1, BRD9; assay: Degradation of BRD9 (IF), immunofluorescence in MV4-11 cells, 24 hours (Assay Protocol 2); assay type: cell-based; set-up: A suspension of MV4-11 cells (ATCC CRL-9591) was prepared; host or cells: MV4-11; settings: BRD9 degradation; for DC50: Assay protocol 2, read-out: DC50; for Dmax: MV4-11, Assay protocol 2, read-out: Dmax
Summary of the method: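 % BRD9 remaining, scaled between DMSO (high) and 100 nM CFT-8634 (low) control wells, derives from mean Alexa 647 contrast in central nuclei by high-content imaging. MV4-11 cells had 24 h compound exposure at 37° C. before PFA fixation, Triton permeabilisation and anti-BRD9 E4Q3F immunostaining.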

Structure (SMILES) | DC50 (BRD9 [1]) | Dmax (BRD9 [1]) | DC50 (BRD9 [2]) | Dmax (BRD9 [2])
COc1cc(-c2cn(C)c(=O)c(C)c2C)cc(OC)c1CN1CCN(Cc2cccc3c2CCN(C(=O)/C(C#N)=C/C2(F)CC2)C3C)CC1 (mixture of isomers) [Compound B20, (E/Z)-2-(5-((4-(2,6-dimethoxy-4-(1,4,5-trimethyl-6-oxo-1,6-dihydropyridin-3-yl)benzyl)piperazin-1-yl)methyl)-1-methyl-1,2,3,4-tetrahydroisoquinoline-2-carbonyl)-3-(1-fluorocyclopropyl)acrylonitrile] | < 0.00125 µM | > 75% | < 0.00125 µM | > 75%
COc1cc(-c2cn(C)c(=O)c(C)c2C)cc(OC)c1CN(C)Cc1ccc2c(c1)CCN(C(=O)/C(C#N)=C/c1nc3ccccc3s1)C2C (mixture of isomers) [Compound B21, (E/Z)-3-(benzo[d]thiazol-2-yl)-2-(6-(((2,6-dimethoxy-4-(1,4,5-trimethyl-6-oxo-1,6-dihydropyridin-3-yl)benzyl)(methyl)amino)methyl)-1-methyl-1,2,3,4-tetrahydroisoquinoline-2-carbonyl)acrylonitrile] | 0.00125 to 0.01 µM | 40 to 70% | < 0.00125 µM | 40 to 70%
COc1cc(-c2cn(C)c(=O)c(C)c2C)cc(OC)c1CN1CCN(Cc2cccc3c2CCN(C(=O)/C(C#N)=C/c2cccc(C)n2)C3C)CC1 (mixture of isomers) [Compound B24, (E/Z)-2-(5-((4-(2,6-dimethoxy-4-(1,4,5-trimethyl-6-oxo-1,6-dihydropyridin-3-yl)benzyl)piperazin-1-yl)methyl)-1-methyl-1,2,3,4-tetrahydroisoquinoline-2-carbonyl)-3-(6-methylpyridin-2-yl)acrylonitrile] | < 0.00125 µM | 40 to 70% | 0.00125 to 0.01 µM | 40 to 70%
COc1cc(-c2cn(C)c(=O)c(C)c2C)cc(OC)c1CN1CC2CC(C1)N2Cc1cccc2c1CCN(C(=O)/C(C#N)=C/c1ccnc(C)n1)C2C (mixture of isomers) [Compound B25, (E/Z)-2-(5-((3-(2,6-dimethoxy-4-(1,4,5-trimethyl-6-oxo-1,6-dihydropyridin-3-yl)benzyl)-3,6-diazabicyclo[3.1.1]heptan-6-yl)methyl)-1-methyl-1,2,3,4-tetrahydroisoquinoline-2-carbonyl)-3-(2-methylpyrimidin-4-yl)acrylonitrile] | 0.00125 to 0.01 µM | > 75% | 0.00125 to 0.01 µM | > 75%
COc1cc(-c2cn(C)c(=O)c(C)c2C)cc(OC)c1CN1CCN(CC(=O)NCCOc2ccc3c(c2)C(C)N(C(=O)/C(C#N)=C/c2nccs2)CC3)CC1 (mixture of isomers) [Compound B29, (E/Z)—N-(2-((2-(2-cyano-3-(thiazol-2-yl)acryloyl)-1-methyl-1,2,3,4-tetrahydroisoquinolin-7-yl)oxy)ethyl)-2-(4-(2,6-dimethoxy-4-(1,4,5-trimethyl-6-oxo-1,6-dihydropyridin-3-yl)benzyl)piperazin-1-yl)acetamide] | 0.025 to 1 µM | 70 to 75% | 0.01 to 0.025 µM | > 75%
COc1cc(-c2cn(C)c(=O)c(C)c2C)cc(OC)c1CN1CCN(CC(=O)NCCOc2ccc3c(c2)CCN(C(=O)/C(C#N)=C/c2nccs2)C3C)CC1 (mixture of isomers) [Compound B31, (E/Z)—N-(2-((2-(2-cyano-3-(thiazol-2-yl)acryloyl)-1-methyl-1,2,3,4-tetrahydroisoquinolin-6-yl)oxy)ethyl)-2-(4-(2,6-dimethoxy-4-(1,4,5-trimethyl-1-oxo-1,6-dihydropyridin-3-yl)benzyl)piperazin-1-yl)acetamide] | – | 40 to 70% | 0.01 to 0.025 µM | 40 to 70%
COc1cc(-c2cn(C)c(=O)c(C)c2C)cc(OC)c1CN1CCN(CC(=O)NCCOc2cccc(C3CCCN3C(=O)/C(C#N)=C/c3nccs3)c2)CC1 (mixture of isomers) [Compound B32, (E/Z)—N-(2-(3-(1-(2-cyano-3-(thiazol-2-yl)acryloyl)pyrrolidin-2-yl)phenoxy)ethyl)-2-(4-(2,6-dimethoxy-4-(1,4,5-trimethyl-6-oxo-1,6-dihydropyridin-3-yl)benzyl)piperazin-1-yl)acetamide] | 0.025 to 1 µM | 40 to 70% | 0.025 to 1 µM | 40 to 70%

The next lines start with the values.

DC50 (BRD9 [1]) | Dmax (BRD9 [1]) | DC50 (BRD9 [2]) | Dmax (BRD9 [2]) | Structure (SMILES)
0.01 to 0.025 µM | 40 to 70% | 0.00125 to 0.01 µM | 40 to 70% | COc1cc(-c2cn(C)c(=O)c(C)c2C)cc(OC)c1CN(C)Cc1ccc(C2CCCN2C(=O)/C(C#N)=C/C(C)(C)C)cc1 (mixture of isomers) [Compound B34]
0.025 to 1 µM | > 75% | 0.01 to 0.025 µM | > 75% | COc1cc(-c2cn(C)c(=O)c(C)c2C)cc(OC)c1CN1CCN(C(=O)c2cccc(C3CCCN3C(=O)/C(C#N)=C/C(C)(C)C)c2)CC1 (mixture of isomers) [Compound B35, (E/Z)-2-(2-(3-(4-(2,6-dimethoxy-4-(1,4,5-trimethyl-6-oxo-1,6-dihydropyridin-3-yl)benzyl)piperazine-1-carbonyl)phenyl)pyrrolidine-1-carbonyl)-4,4-dimethylpent-2-enenitrile]
0.00125 to 0.01 µM | 40 to 70% | 0.025 to 1 µM | 40 to 70% | COc1cc(-c2cn(C)c(=O)c(C)c2C)cc(OC)c1CN1CCN(Cc2cccc3c2CCN(C(=O)/C(C#N)=C/C2(C(F)(F)F)CCC2)C3C)CC1 (mixture of isomers) [Compound B36, (E/Z)-2-(5-((4-(2,6-dimethoxy-4-(1,4,5-trimethyl-6-oxo-1,6-dihydropyridin-3-yl)benzyl)piperazin-1-yl)methyl)-1-methyl-1,2,3,4-tetrahydroisoquinoline-2-carbonyl)-3-(1-(trifluoromethyl)cyclobutyl)acrylonitrile]
0.025 to 1 µM | > 75% | 0.01 to 0.025 µM | 40 to 70% | COc1cc(-c2cn(C)c(=O)c(C)c2C)cc(OC)c1CN1CCC2(CC1)CCN(c1cccc3c1CCN(C(=O)/C(C#N)=C/C(C)(C)C)C3C)CC2 (mixture of isomers) [Compound B39, (E/Z)-2-(5-(9-(2,6-dimethoxy-4-(1,4,5-trimethyl-6-oxo-1,6-dihydropyridin-3-yl)benzyl)-3,9-diazaspiro[5.5]undecan-3-yl)-1-methyl-1,2,3,4-tetrahydroisoquinoline-2-carbonyl)-4,4-dimethylpent-2-enenitrile]
< 0.00125 µM | 40 to 70% | < 0.00125 µM | 40 to 70% | COc1cc(-c2cn(C)c(=O)c(C)c2C)cc(OC)c1CN1CCC2(C1)CN(c1cccc3c1CCN(C(=O)/C(C#N)=C/C(C)(C)C)C3C)C2 (mixture of isomers) [Compound B40, (E/Z)-2-(5-(6-(2,6-dimethoxy-4-(1,4,5-trimethyl-6-oxo-1,6-dihydropyridin-3-yl)benzyl)-2,6-diazaspiro[3.4]octan-2-yl)-1-methyl-1,2,3,4-tetrahydroisoquinoline-2-carbonyl)-4,4-dimethylpent-2-enenitrile]
0.00125 to 0.01 µM | > 75% | 0.01 to 0.025 µM | > 75% | COc1cc(-c2cn(C)c(=O)c(C)c2C)cc(OC)c1CN1CCN(c2cccc(C3CCCN3C(=O)/C(C#N)=C/C(C)(C)C)c2)CC1 (mixture of isomers) [Compound B41, (E/Z)-2-(2-(3-(4-(2,6-dimethoxy-4-(1,4,5-trimethyl-4-oxo-1,6-dihydropyridin-3-yl)benzyl)piperazin-1-yl)phenyl)pyrrolidine-1carbonyl)-4,4-dimethylpent-2-enenitrile]
0.01 to 0.025 µM | 40 to 70% | – | 40 to 70% | COc1cc(-c2cn(C)c(=O)c(C)c2C)cc(OC)c1CN1CCN(c2ccc(C3CCCN3C(=O)/C(C#N)=C/C(C)(C)C)cc2)CC1 (mixture of isomers) [Compound B42, (E/Z)-2-(2-(4-(4-(2,6-dimethoxy-4-(1,4,5-trimethyl-6-oxo-1,6-dihydropyridin-3-yl)benzyl)piperazin-1-yl)phenyl)pyrrolidine-1-carbonyl)-4,4-dimethylpent-2-enenitrile]
< 0.00125 µM | > 75% | < 0.00125 µM | 40 to 70% | COc1cc(-c2cn(C)c(=O)c(C)c2C)cc(OC)c1CN1CCC(Oc2cccc3c2CCN(C(=O)/C(C#N)=C/C(C)(C)C)C3C)CC1 (mixture of isomers) [Compound B44, (E/Z)-2-(5-((1-(2,6-dimethoxy-4-(1,4,5-trimethyl-6-oxo-1,6-dihydropyridin-3-yl)benzyl)piperidin-4-yl)oxy)-1-methyl-1,2,3,4-tetrahydroisoquinoline-2-carbonyl)-4,4-dimethylpent-2-enenitrile]
